How the values were obtained:
[1] = biological target: T1, HpSHMT (H. pylori SHMT; HP0183 gene product) (Helicobacter pylori, UniProt P56089); assay: coupled alcohol dehydrogenase assay, NADH oxidation at […] nm; type: biochemical; details: 20 uM SHMT, 250 uM PLP, 250 uM NADH, 50 mM phosphate pH 8.0, room temperature; folate-independent retroaldol cleavage
T1 construct: gene glyA; full-length, C-terminal 6xHis tag (pQE60), expressed in E. coli SG 13009; predicted monomer 46,776 Da; homodimer; purified largely as apoprotein
T1 sequence (P56089 1-416): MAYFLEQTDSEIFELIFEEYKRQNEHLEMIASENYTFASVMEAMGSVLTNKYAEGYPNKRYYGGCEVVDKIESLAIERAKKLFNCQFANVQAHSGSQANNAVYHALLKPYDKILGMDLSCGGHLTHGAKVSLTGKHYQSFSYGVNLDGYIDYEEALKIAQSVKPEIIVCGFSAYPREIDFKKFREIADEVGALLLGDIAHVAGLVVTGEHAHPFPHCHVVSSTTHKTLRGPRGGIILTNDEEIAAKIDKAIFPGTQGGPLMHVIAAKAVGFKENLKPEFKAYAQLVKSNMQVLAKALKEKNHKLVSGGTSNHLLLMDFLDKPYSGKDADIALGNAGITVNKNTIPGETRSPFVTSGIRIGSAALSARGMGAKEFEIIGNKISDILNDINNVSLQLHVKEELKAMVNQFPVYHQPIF

[2] = biological target: T1, HpSHMT (H. pylori SHMT; HP0183 gene product); assay: absorbance at […] nm of enzyme-PLP-glycine-folate ternary complex, MTHF titration; type: binding; details: read-out: apparent KFol
[3] = biological target: T1, HpSHMT (H. pylori SHMT; HP0183 gene product); assay: absorbance at […] nm of enzyme-PLP-glycine-folate ternary complex; type: binding; details: fixed 5 mM glycine with 250 uM PLP and 0-2 mM MTHF, pH 8.0, room temperature
[4] = biological target: the molecule itself; assay: crystal structure; HpSHMT apoprotein, hanging drop vapour diffusion, 20% PEG 3350, 0.2 M sodium acetate, room temperature; space group P212121, two monomers in the asymmetric unit; 2.8 Å

## C[C@H](O)[C@H](N)C(=O)O [L-allothreonine]
[1]
  coupled alcohol dehydrogenase assay, NADH oxidation at 340 nm: it is able to transform L-allothreonine to acetaldehyde, thus confirming its activity as SHMT

## Nc1nc2c(c(=O)[nH]1)N1CN(c3ccc(C(=O)N[C@@H](CCC(=O)O)C(=O)O)cc3)C[C@H]1CN2 [MTHF]
[2]
  Kd: 300 µM

## NCC(=O)O [glycine]
[3]
  absorbance at 502 nm of enzyme-PLP-glycine-folate ternary complex: corresponding to the intermediate ternary enzyme-PLP-glycine-folate complex

B1: Serine hydroxymethyltransferase from Helicobacter pylori 26695 (HP0183 gene product) (enzyme, Helicobacter pylori strain 26695, UniProt P56089 1-416, looked up)
chain: T1 sequence (P56089 1-416)
notes: Serine hydroxymethyltransferase (glyA, ORF HP0183) of Helicobacter pylori strain 26695; gene amplified with primers SA36/SA37 (from the ATG to the end of the ORF) and inserted into pQE60; residues 3-416 modelled in the crystal; Homodimer by crystal structure and dynamic light scattering; Predicted mass per monomer 46,776 Da; also called HpSHMT; SHMT; source: E. coli SG 13009 (pREP4), pQE60, …
[4]
  stoichiometry N: 2

From article PMC6294363, “Structural and functional insight into serine hydroxymethyltransferase from Helicobacter pylori” (PLoS ONE, 2018)
